Columns and labels:
B16 [1] = experiment: In vitro antiproliferative activity against Murine B16 Melanoma cells in presence of 1 mM uridine at a dose of 1 mM; format: functional, Mus musculus
B16 [2] = experiment: In vitro antiproliferative activity against Murine B16 Melanoma cells in presence of 1 mM uridine at a dose of 2 mM; format: functional, Mus musculus
B16 [3] = experiment: In vitro antiproliferative activity against Murine B16 Melanoma cells in presence of 1 mM uridine at a dose of 0.12 mM; format: functional, Mus musculus
B16 [4] = experiment: In vitro antiproliferative activity against Murine B16 Melanoma cells in presence of 1 mM uridine at a dose of 0.25 mM; format: functional, Mus musculus
B16 [5] = experiment: In vitro antiproliferative activity against Murine B16 Melanoma cells in presence of 1 mM uridine at a dose of 0.5 mM; format: functional, Mus musculus
B16 [6] = experiment: In vitro antiproliferative activity against Murine B16 Melanoma cells without uridine at a dose of 0.12 mM; format: functional, Mus musculus
B16 [7] = experiment: In vitro antiproliferative activity against Murine B16 Melanoma cells without uridine at a dose of 0.25 mM; format: functional, Mus musculus
B16 [8] = experiment: In vitro antiproliferative activity against Murine B16 Melanoma cells without uridine at a dose of 0.5 mM; format: functional, Mus musculus
B16 [9] = experiment: In vitro antiproliferative activity against Murine B16 Melanoma cells without uridine at a dose of 1 mM; format: functional, Mus musculus
B16 [10] = experiment: In vitro antiproliferative activity against Murine B16 Melanoma cells without uridine at a dose of 2 mM; format: functional, Mus musculus
[11] = Dissociation constant was determined; format: physicochemical
B16 [12] = experiment: In vitro antiproliferative activity against Murine B16 Melanoma cells in presence of 1 mM uridine at a dose of 10 mM; format: functional, Mus musculus
B16 [13] = experiment: In vitro antiproliferative activity against Murine B16 Melanoma cells without uridine at a dose of 0.01 mM; format: functional, Mus musculus
B16 [14] = experiment: In vitro antiproliferative activity against Murine B16 Melanoma cells in presence of 1 mM uridine at a dose of 0.01 mM; format: functional, Mus musculus
B16 [15] = experiment: In vitro antiproliferative activity against Murine B16 Melanoma cells in presence of 1 mM uridine at a dose of 0.1 mM; format: functional, Mus musculus
B16 [16] = experiment: In vitro antiproliferative activity against Murine B16 Melanoma cells without uridine at a dose of 0.1 mM; format: functional, Mus musculus
B16 [17] = experiment: In vitro antiproliferative activity against Murine B16 Melanoma cells without uridine at a dose of 10 mM; format: functional, Mus musculus

SMILES | Growth inhibition (B16 [1]) | Growth inhibition (B16 [2]) | Growth inhibition (B16 [3]) | Growth inhibition (B16 [4]) | Growth inhibition (B16 [5]) | Growth inhibition (B16 [6]) | Growth inhibition (B16 [7]) | Growth inhibition (B16 [8]) | Growth inhibition (B16 [9]) | Growth inhibition (B16 [10]) | Ki [11] | Growth inhibition (B16 [12]) | Growth inhibition (B16 [13]) | Growth inhibition (B16 [14]) | Growth inhibition (B16 [15]) | Growth inhibition (B16 [16]) | Growth inhibition (B16 [17])
COC(=O)[C@@H]1C[C@H](CSC(C)=O)NC(=O)N1 (relative stereo) | 83% | 98% | 0% | 2% | 9% | 0% | 2% | 28% | 94% | 96% | – | – | – | – | – | – | –
O=C1N[C@@H](CS)C[C@@H](C(=O)O)N1 (relative stereo) | 12% | 18% | 0% | 3% | 4% | 4% | 9% | 14% | 17% | 22% | 200 nM | – | – | – | – | – | –
O=C(O)C[C@H](NC(=O)CP(=O)(O)O)C(=O)O [PALA] | 9% | – | – | – | – | – | – | – | 86% | – | – | 10% | 16% | 6% | 6% | 79% | 84%

Reference: ChEMBL document CHEMBL1124150, “cis-4-Carboxy-6-(mercaptomethyl)-3,4,5,6-tetrahydropyrimidin-2(1 H)-one , a potent inhibitor of mammalian dihydroorotase” (J Med Chem, 1988)
